We go through 14 compounds from ChEMBL document CHEMBL6115000, “Discovery of a first-in-class PROTAC degrader of histone lysine demethylase KDM4” (Eur J Med Chem, 2025).

Each structure is given as a SMILES string.

Experiment [1] addresses T1, von Hippel-Lindau disease tumor suppressor/Lysine-specific demethylase 4A (Homo sapiens, UniProt O75164+P40337). As to the kind of experiment: PROTAC activity at VHL/KDM4A in human KYSE-150 cells assessed as induction of KDM4A degradation at 0.1 uM incubated for 12 hrs by Western blot analysis relative to control. The conditions noted are these: KYSE-150 cell line. Type of experiment: cell-based.

For experiment [2], the target named is T1, von Hippel-Lindau disease tumor suppressor/Lysine-specific demethylase 4A. As to the kind of experiment: PROTAC activity at VHL/KDM4A in human KYSE-150 cells assessed as induction of KDM4A degradation at 1 uM incubated for 12 hrs by Western blot analysis relative to control. It is filed as cell-based. As to conditions: KYSE-150 cell line. For orientation: In western blotting, separated proteins are transferred to a membrane and probed.

T1 sequence (O75164 2-1064 limits assumed): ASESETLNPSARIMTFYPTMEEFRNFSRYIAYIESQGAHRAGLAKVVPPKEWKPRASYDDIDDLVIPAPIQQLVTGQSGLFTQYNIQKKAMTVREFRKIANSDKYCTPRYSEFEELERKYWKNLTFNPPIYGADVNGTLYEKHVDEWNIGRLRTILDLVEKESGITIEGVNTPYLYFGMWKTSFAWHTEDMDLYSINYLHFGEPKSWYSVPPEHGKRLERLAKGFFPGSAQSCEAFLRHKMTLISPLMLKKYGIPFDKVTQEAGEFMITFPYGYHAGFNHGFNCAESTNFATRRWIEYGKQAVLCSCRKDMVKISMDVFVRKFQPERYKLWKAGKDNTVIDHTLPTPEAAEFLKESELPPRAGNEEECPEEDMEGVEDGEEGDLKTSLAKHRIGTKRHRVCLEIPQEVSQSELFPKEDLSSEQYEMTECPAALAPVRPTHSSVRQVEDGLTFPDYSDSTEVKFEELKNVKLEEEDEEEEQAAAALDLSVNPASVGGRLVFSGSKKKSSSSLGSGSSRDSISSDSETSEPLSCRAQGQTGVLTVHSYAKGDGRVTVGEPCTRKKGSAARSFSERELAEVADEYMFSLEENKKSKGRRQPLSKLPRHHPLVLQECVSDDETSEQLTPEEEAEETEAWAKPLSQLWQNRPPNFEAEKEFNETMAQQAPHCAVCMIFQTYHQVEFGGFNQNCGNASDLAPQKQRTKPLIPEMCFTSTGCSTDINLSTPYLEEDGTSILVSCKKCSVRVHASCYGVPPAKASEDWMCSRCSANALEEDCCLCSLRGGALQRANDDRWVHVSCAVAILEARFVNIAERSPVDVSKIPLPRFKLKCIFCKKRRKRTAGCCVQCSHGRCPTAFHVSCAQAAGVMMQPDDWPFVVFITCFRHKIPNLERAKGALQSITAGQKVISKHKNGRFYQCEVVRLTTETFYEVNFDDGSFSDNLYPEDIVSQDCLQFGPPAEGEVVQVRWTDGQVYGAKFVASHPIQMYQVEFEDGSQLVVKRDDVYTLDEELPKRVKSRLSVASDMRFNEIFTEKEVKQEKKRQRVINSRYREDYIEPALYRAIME
T1 sequence (P40337 whole entry partner): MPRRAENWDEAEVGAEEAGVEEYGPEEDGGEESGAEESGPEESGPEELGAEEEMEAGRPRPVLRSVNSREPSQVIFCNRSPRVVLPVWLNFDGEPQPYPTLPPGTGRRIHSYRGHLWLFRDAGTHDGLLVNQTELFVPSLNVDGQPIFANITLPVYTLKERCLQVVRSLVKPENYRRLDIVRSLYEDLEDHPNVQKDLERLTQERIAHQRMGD

On to `Cc1ncsc1-c1ccc([C@H](C)NC(=O)[C@@H]2C[C@@H](O)CN2C(=O)[C@@H](NC(=O)CCCCCOc2ccc(N(C)c3ccc4c(c3)OCC[C@H]4CNc3cnccc3C(=O)O)cc2)C(C)(C)C)cc1`, for which the Activity in experiment [1] was 15.9%; in experiment [2], 14.1%.
With `Cc1ncsc1-c1ccc([C@H](C)NC(=O)[C@@H]2C[C@@H](O)CN2C(=O)[C@@H](NC(=O)CCCCCCCCOc2ccc(N(C)c3ccc4c(c3)OCC[C@H]4CNc3cnccc3C(=O)O)cc2)C(C)(C)C)cc1`, the Activity in experiment [1] came out at 34.6%; in experiment [2] it was 53.9%.
For `Cc1ncsc1-c1ccc([C@H](C)NC(=O)[C@@H]2C[C@@H](O)CN2C(=O)[C@@H](NC(=O)CCCCCCCCCCCOc2ccc(N(C)c3ccc4c(c3)OCC[C@H]4CNc3cnccc3C(=O)O)cc2)C(C)(C)C)cc1`, the Activity in experiment [1] was 47.1%; in experiment [2], 58.5%.
The matching figures for `Cc1ncsc1-c1ccc([C@H](C)NC(=O)[C@@H]2C[C@@H](O)CN2C(=O)[C@@H](NC(=O)CCOCCOCCOc2ccc(N(C)c3ccc4c(c3)OCC[C@H]4CNc3cnccc3C(=O)O)cc2)C(C)(C)C)cc1`: 6.5% and 15.5%.
As for `Cc1ncsc1-c1ccc([C@H](C)NC(=O)[C@@H]2C[C@@H](O)CN2C(=O)[C@@H](NC(=O)CCCCCCCCCCOc2ccc(N(C)c3ccc4c(c3)OCC[C@H]4CNc3cnccc3C(=O)O)cc2)C(C)(C)C)cc1`, the values for the Activity in experiment [1] and in experiment [2] were 36.7% and 58.6%, respectively.
Consider `Cc1ncsc1-c1ccc([C@H](C)NC(=O)[C@@H]2C[C@@H](O)CN2C(=O)[C@@H](NC(=O)c2ccc(CCCCOc3ccc(N(C)c4ccc5c(c4)OCC[C@H]5CNc4cnccc4C(=O)O)cc3)cc2)C(C)(C)C)cc1`, for which the values for the Activity in experiment [1] and in experiment [2] were 30.5% and 43.9%, respectively.
Turning to `Cc1ncsc1-c1ccc([C@H](C)NC(=O)[C@@H]2C[C@@H](O)CN2C(=O)[C@@H](NC(=O)C2CCN(C(=O)CCCCCOc3ccc(N(C)c4ccc5c(c4)OCC[C@H]5CNc4cnccc4C(=O)O)cc3)CC2)C(C)(C)C)cc1`, the Activity turned out to be 19.5% in experiment [1] and 12% in experiment [2].
As for `Cc1ncsc1-c1ccc([C@H](C)NC(=O)[C@@H]2C[C@@H](O)CN2C(=O)[C@@H](NC(=O)CCCCCCCOc2ccc(N(C)c3ccc4c(c3)OCC[C@H]4CNc3cnccc3C(=O)O)cc2)C(C)(C)C)cc1`, the Activity in experiment [1] stood at 37.1%; in experiment [2], 57.2%.
`Cc1ncsc1-c1ccc([C@H](C)NC(=O)[C@@H]2C[C@@H](O)CN2C(=O)[C@@H](NC(=O)c2ccc(C#CCCCCOc3ccc(N(C)c4ccc5c(c4)OCC[C@H]5CNc4cnccc4C(=O)O)cc3)cc2)C(C)(C)C)cc1`: the Activity was found to be 38.7% in experiment [1] and 47.3% in experiment [2].
The like results for `Cc1ncsc1-c1ccc([C@H](C)NC(=O)[C@@H]2C[C@@H](O)CN2C(=O)[C@@H](NC(=O)c2ccc(CCCCCCOc3ccc(N(C)c4ccc5c(c4)OCC[C@H]5CNc4cnccc4C(=O)O)cc3)cc2)C(C)(C)C)cc1` were, in that order, 52.4% and 54.5%.
The matching figures for `Cc1ncsc1-c1ccc([C@H](C)NC(=O)[C@@H]2C[C@@H](O)CN2C(=O)[C@@H](NC(=O)CCCCCCCOc2cccc(N(C)c3ccc4c(c3)OCC[C@H]4CNc3cnccc3C(=O)O)c2)C(C)(C)C)cc1`: -0.2% and 41.1%.
As for `Cc1ncsc1-c1ccc([C@H](C)NC(=O)[C@@H]2C[C@@H](O)CN2C(=O)[C@@H](NC(=O)CCCCCCOc2ccc(N(C)c3ccc4c(c3)OCC[C@H]4CNc3cnccc3C(=O)O)cc2)C(C)(C)C)cc1`, the Activity in experiment [1] worked out at 48.5%; in experiment [2], 57.9%.
For `Cc1ncsc1-c1ccc([C@H](C)NC(=O)[C@@H]2C[C@@H](O)CN2C(=O)[C@@H](NC(=O)CCOCCOCCOCCOc2ccc(N(C)c3ccc4c(c3)OCC[C@H]4CNc3cnccc3C(=O)O)cc2)C(C)(C)C)cc1`, the Activity in experiment [1] was -2.5%; in experiment [2], 15.5%.
For the compound `Cc1ncsc1-c1ccc([C@H](C)NC(=O)[C@@H]2C[C@@H](O)CN2C(=O)[C@@H](NC(=O)c2ccc(CCCCCOc3ccc(N(C)c4ccc5c(c4)OCC[C@H]5CNc4cnccc4C(=O)O)cc3)cc2)C(C)(C)C)cc1`, the Activity came out at 42.7% in experiment [1] and 63.1% in experiment [2].
